Values of other authors, collected in patent publication US20090298852A1, “Pellet-form slow-release preparation for vertigo” (priority 2005, published 2009).

solubility in water: approximately 2 mg/100 ml
Structure (SMILES): C(=C\c1ccccc1)/CN1CCN(C(c2ccccc2)c2ccccc2)CC1 [cinnarizine, 1-benzhydryl-4-trans-cinnamylpiperazine]
